Assay results published in ChEMBL document CHEMBL1201862, “PubChem BioAssay data set” (2004).
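A five-concentration, 48-hour dose response in 96-well plates underlies each endpoint, interpolated linearly between surrounding concentrations. GI50 is the concentration that inhibits growth by half.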 Activity calls are given as the source filed them. Rule as the data show it: active = GI50 up to about 1.1 µM and inactive = higher.

Columns and labels:
Test in all cases: inhibition of tumour cell growth, NCI panel, 48 h
[1] = test system: SK-MEL-28
[2] = test system: MDA-N
[3] = test system: Hs-578T
[4] = test system: TK-10
[5] = test system: K562
[6] = test system: IGROV-1
[7] = test system: SK-MEL-2
[8] = test system: NCI-H226
[9] = test system: MDA-MB-231
[10] = test system: CAKI-1
[11] = test system: SN12C
[12] = test system: NCI/ADR-RES
[13] = test system: SF-268
[14] = test system: M14
[15] = test system: SR
[16] = test system: KM12
[17] = test system: OVCAR-8
[18] = test system: HOP-62
[19] = test system: UACC-62
[20] = test system: HL-60

| Structure (SMILES) | GI50 [1] | GI50 [2] | GI50 [3] | GI50 [4] | GI50 [5] | GI50 [6] | GI50 [7] | GI50 [8] | GI50 [9] | GI50 [10] | GI50 [11] | GI50 [12] | GI50 [13] | GI50 [14] | GI50 [15] | GI50 [16] | GI50 [17] | GI50 [18] | GI50 [19] | GI50 [20] |
| --- | --- | --- | --- | --- | --- | --- | --- | --- | --- | --- | --- | --- | --- | --- | --- | --- | --- | --- | --- | --- |
| C[As+](C)(c1ccc(Br)c([N+](=O)[O-])c1)c1ccc(Br)c([N+](=O)[O-])c1 | 27.9 µM (inactive) | > 100 µM (inactive) | > 100 µM (inactive) | > 100 µM (inactive) | > 100 µM (inactive) | > 100 µM (inactive) | > 100 µM (inactive) | > 100 µM (inactive) | > 100 µM (inactive) | > 100 µM (inactive) | > 100 µM (inactive) | > 100 µM (inactive) | > 100 µM (inactive) | > 100 µM (inactive) | > 100 µM (inactive) | > 100 µM (inactive) | > 100 µM (inactive) | > 100 µM (inactive) | > 100 µM (inactive) |  |
| O=C(NCc1ccc(Cl)cc1)c1cc2sccc2nc1C(F)(F)F | 55.7 µM (inactive) | > 100 µM (inactive) | 19.8 µM (inactive) | 33.7 µM (inactive) | > 100 µM (inactive) | 29.6 µM (inactive) | 50 µM (inactive) | 19.6 µM (inactive) | 31.3 µM (inactive) | 31.7 µM (inactive) | 44.8 µM (inactive) | 39.1 µM (inactive) | 24.2 µM (inactive) | > 100 µM (inactive) | 39.9 µM (inactive) | 87.1 µM (inactive) | 26.4 µM (inactive) | 22.3 µM (inactive) | 35.2 µM (inactive) |  |
| COc1ccc2c(ccc3c(COC(=O)NC(C)C)c(COC(=O)NC(C)C)n(C)c32)c1 |  | 12.3 µM (inactive) | 13.7 µM (inactive) | 11.2 µM (inactive) | 6.08 µM (inactive) | 4.13 µM (inactive) | 17.1 µM (inactive) | 3.08 µM (inactive) | 16.3 µM (inactive) | 2.11 µM (inactive) |  | 5.01 µM (inactive) | 5.19 µM (inactive) | 9.06 µM (inactive) | 0.655 µM (active) | 11.5 µM (inactive) | 5.9 µM (inactive) | 4.99 µM (inactive) | 4.42 µM (inactive) |  |
| C[C@H](N)C(=O)Nc1ccc(-c2nc3ccccc3s2)cc1 | 18.5 µM (inactive) | 18.7 µM (inactive) | 37.8 µM (inactive) | 24.5 µM (inactive) | 21.5 µM (inactive) | 15.2 µM (inactive) | 28.6 µM (inactive) | 26.8 µM (inactive) | 18.4 µM (inactive) | 17.1 µM (inactive) | 24.8 µM (inactive) | 28.6 µM (inactive) | 41.3 µM (inactive) | 10.9 µM (inactive) | 15.1 µM (inactive) | 16.3 µM (inactive) | 25.6 µM (inactive) | 26.5 µM (inactive) | 18.5 µM (inactive) |  |
| COc1cc(OCc2ccc3nc(-c4ccccc4)c(Cl)nc3c2)cc(OC)c1OC | > 100 µM (inactive) | > 100 µM (inactive) | 39.6 µM (inactive) | 19.4 µM (inactive) |  | 69.2 µM (inactive) | 45.5 µM (inactive) |  | 39.1 µM (inactive) | 24.8 µM (inactive) | > 100 µM (inactive) | 58.1 µM (inactive) | > 100 µM (inactive) | > 100 µM (inactive) | > 100 µM (inactive) | > 100 µM (inactive) | > 100 µM (inactive) | 33.3 µM (inactive) | 83.2 µM (inactive) | 24.5 µM (inactive) |
| CCSC1=N/C(=C\c2ccco2)C(Nc2ccc(C)cc2)=N1 | > 100 µM (inactive) | > 100 µM (inactive) | > 100 µM (inactive) | > 100 µM (inactive) | > 100 µM (inactive) | 60.5 µM (inactive) | > 100 µM (inactive) | > 100 µM (inactive) | > 100 µM (inactive) |  | > 100 µM (inactive) | > 100 µM (inactive) | > 100 µM (inactive) | > 100 µM (inactive) | > 100 µM (inactive) | > 100 µM (inactive) | > 100 µM (inactive) | > 100 µM (inactive) | > 100 µM (inactive) |  |
